pEC50, pIC50: −log10 of the molar value. Some results are limits rather than exact numbers.

In one assay the test system is Vero. As to the kind of experiment: Cytotoxicity in vero cells. Format: functional, cell-based. To be noted: Chlorocebus sabaeus.
Assay [1] is described as follows: Cytotoxicity in peripheral blood mononuclear cells (PBM). Format: functional, cell-based. As to conditions: Homo sapiens.
The nature of assay [2]: Effective concentration against HIV-1 in peripheral blood mononuclear cells (PBM). It counts as functional, Homo sapiens.
Assay [3] is described as follows: Effective concentration against HIV-1 in peripheral blood mononuclear cells(PBM). It counts as functional, Homo sapiens.
Assay [4] can be described thus: Cytotoxicity in peripheral blood mononuclear cells(PBM). To be noted: Homo sapiens. It counts as functional, cell-based.
The nature of assay [5]: Cytotoxicity in peripheral blood mononuclear. Format: functional, Homo sapiens.
The nature of assay [6]: The compound was tested for antiviral activity against AZT sensitive 10 HIV in PBM cells. It counts as functional. To be noted: Homo sapiens, PBMC.
Assay [7] in a line: The compound was tested for antiviral activity against AZT resistant strain 10 HIV in PBM cells. It counts as functional. As to conditions: Homo sapiens, PBMC.
Assay [8] can be described thus: The compound was tested for antiviral activity against AZT resistant strain 9F HIV in PBM cells. It counts as functional, cell-based. As to conditions: Homo sapiens, PBMC.
The nature of assay [9]: The compound was tested for antiviral activity against AZT sensitive strain 9F HIV in PBM cells. It counts as functional, cell-based. As to conditions: Homo sapiens, PBMC.

Turning to `O=c1ccn([C@H]2CO[C@@H](CO)O2)c(=O)[nH]1`, the negative-log IC50 (pIC50) (in the assay with Vero; in assay [1]) was less than 4.00 throughout. Moreover, in [2], the negative-log EC50 (pEC50) (commonly −log10 of the EC50, conventionally taken in molar units) was less than 4.00.
With `Nc1ccn([C@@H]2CO[C@@H](CO)O2)c(=O)n1`, the pIC50 (with Vero; in [1]) was less than 4.00 in each case. In [2], this molecule had a pEC50 of 5.62.
With `Nc1ccn([C@H]2CO[C@@H](CO)O2)c(=O)n1`, the results for the pIC50 (with Vero; in assay [1]) were 5.08 and 4.21, respectively. In assay [2], this molecule showed a pEC50 of 6.80.
Take `O=c1[nH]c(=O)n([C@H]2CO[C@@H](CO)O2)cc1Br`: the pIC50 (with Vero; in [4]) was less than 4.00 each time. The pEC50 in assay [3] is 5.03.
`O=c1[nH]c(=O)n([C@@H]2CO[C@@H](CO)O2)cc1Br`: the negative logarithm of the IC50 (pIC50) (with Vero; in [4]) was less than 4.00 throughout. For the same molecule, the pEC50 in assay [3] is less than 4.00.
As to `O=c1[nH]c(=O)n([C@H]2CO[C@@H](CO)O2)cc1Cl`, the pIC50 (with Vero; in assay [5]) was less than 4.00 throughout. The same molecule gave a negative-log EC50 (pEC50) in [2] of 5.17.
As for `O=c1[nH]c(=O)n([C@@H]2CO[C@@H](CO)O2)cc1F`, the pIC50 (in the assay with Vero; in assay [1]) was less than 4.00 each time. The pEC50 in assay [2] is less than 4.00.
Consider `O=c1[nH]c(=O)n([C@H]2CO[C@@H](CO)O2)cc1F`, for which the pIC50 (in the assay on Vero; in [1]) was less than 4.00 each time. Further, the pEC50 in [2] is 4.16.
With `O=c1ccn([C@@H]2CO[C@@H](CO)O2)c(=O)[nH]1`, the pIC50 (with Vero; in assay [1]) was less than 4.00 throughout. The negative-log EC50 (pEC50) in [2] was less than 4.00.
Regarding `O=c1[nH]c(=O)n([C@H]2CO[C@@H](CO)O2)cc1I`, the negative-log IC50 (pIC50) (in the assay with Vero; in assay [1]) was less than 4.00 each time. Besides, the pEC50 in [2] was less than 4.00.
Consider `O=c1[nH]c(=O)n([C@@H]2CO[C@@H](CO)O2)cc1I`, for which the pIC50 (in the assay with Vero; in [1]) was less than 4.00 in each case. The molecule also gave a pEC50 in assay [2] of less than 4.00.
With `O=c1[nH]c(=O)n([C@@H]2CO[C@@H](CO)O2)cc1Cl`, the pIC50 (in the assay with Vero; in assay [1]) was less than 4.00 each time. This molecule had a negative-log EC50 (pEC50) in [2] of less than 4.00.
For `Cc1cn([C@H]2C[C@H](N=[N+]=[N-])[C@@H](CO)O2)c(=O)[nH]c1=O` [ZIDOVUDINE], the results for the pIC50 (in the assay with Vero; in assay [1]) were 4.55 and less than 4.00, respectively. For the same molecule, the results for the EC90 in assay [6] and in [7] were 0.0065 µM and 19 µM, respectively. Besides, the figures for the pEC50 in assay [3], in assay [8] and in [9] were 8.05, 5.92 and 8.92, respectively.

The values are drawn from ChEMBL document CHEMBL1126056, “Asymmetric synthesis of 1,3-dioxolane-pyrimidine nucleosides and their anti-HIV activity” (J Med Chem, 1992).
